Measured values published in patent US20210113496A1, “Methods of Treating Excitotoxicity Disorders” (HORIZON ORPHAN LLC, priority 2018, published 2021).

Experiments:
[1] = tested on: ST HDH Q111/111 striatal cells; assay: Permeability/Cell Death assay based on CellTox Green (membrane integrity)
Procedure: (§1) All cell culture methods were carried out under sterile conditions in a class II laminar flow cabinet. The immortalized cell lines, ST HDH Q111/111 and ST HDH Q7/7 were derived from striatal neurons from HdhQ111/Q111 and HdhQ7/Q7 mice (expressing 111 and 7 glutamine repeats, respectively) and were purchased from Coriell. Cells were cultured in Dulbecco's Modified Eagle Medium (DMEM) supplemented with 10% FBS, 4 mM L-alanyl-L-glutamine (Corning Glutagro), and 400 μg/mL G418. Cells were grown at 33° C. in a 5% CO2 incubator. All experiments used cells with passages lower than 14.
(§2) Cells were plated at a density of 8×10^3 or 1.2×10^3 cells/well (CellTox or XTT, respectively) in sterile 96 well plates (100 uL). Cells were allowed to adhere overnight at 33° C. in a 5% CO2 incubator. Test compounds were applied and left to incubate for an additional 24 hours. Membrane integrity was assessed by staining with CellTox Green (Promega) reagent following manufacturer guidelines for the Endpoint (2×) Method. Viability was assessed using an XTT Cell Proliferation Kit (ATCC). Before adding XTT reagent, wells were aspirated and washed with serum free media. 50 uL of XTT reagent and 100 uL serum free media were then added to each well and incubated for 2-4 hours before acquiring data. […]

HDH Q111/111 cells = assay: XTT Cell Proliferation assay (viability); settings: FIGS. 2A and 2B
Procedure: as §1, §2

striatal cells = assay: Live cell count after 24 or 48 hours of culture with glutamate (Cellometer); type: cell-based, mice; settings: cells cultured with glutamate, cysteamine administered 24 hours later; FIG. 3
Procedure: All experiments used cells with passages lower than 14. Cells were seeded into sterile 12 well plates at an appropriate density (80-120 k cells/well) to reach 50-75% confluence after 24 hours. […] Thereafter, wells were treated with test compounds. Following incubation with the compounds for 24 or 48 hours, wells were rinsed with DPBS, and detached using 500 uL Accutase (EMD). Pellets were rinsed and re-suspended in 250 uL DPBS and live cells were counted on a Cellometer Auto 2000.

Structure (SMILES)	number of dead cells (CellTox Green) ([1]; HDH cells cultured with cysteamine and BSO, compared to BSO alone)	sensitivity of cells to toxicity induced by glutamate and/or the test agents ([1]; cysteamine in combination with GFPB (5 mM), and NMDA (500 uM)+4CPG (250 uM) or BSO (250 uM), FIG. 1B)	rescue of glutamate-induced excitotoxicity (XTT Cell Proliferation) (HDH Q111/111 cells; cysteamine 25 μM in culture with glutamate)	rescue of glutamate-induced excitotoxicity (XTT Cell Proliferation) (HDH Q111/111 cells; cysteamine 75 μM in culture with glutamate)	cell viability (striatal cells)	cytotoxicity (Cell Tox Green) ([1]; 5 mM glutamate given alone, 24 hours, FIG. 1A)	glutamate excitotoxicity (XTT Cell Proliferation) (HDH Q111/111 cells; glutamate in culture, HDH Q111/111 cells)
NCCS [cysteamine, 2-aminoethanethiol]	reduced the number of dead cells	able to reduce sensitivity of cells to toxicity	able to rescue glutamate-induced excitotoxicity	able to rescue glutamate-induced excitotoxicity	positive effects of cysteamine on the cell viability was still observed		
N[C@@H](CCC(=O)O)C(=O)O [glutamate, L-Glutamic acid]						toxic to cells	experience glutamate excitotoxicity
